# Source: patent US12391660B2, “Heteroaromatic acetamide derivative, and preparation and use thereof” (Hangzhou Westan Pharmaceutical Technology Co., Ltd, priority 2019, dated 2025)
# Target: human TRPA1 (Homo sapiens (Human), UniProt O75762)
# Assay: FLIPR assay of inhibitory activity on human TRPA1 (calcium ion flux fluorescence)
# Format: cell-based
# Conditions: HEK293 cells stably expressing human TRPA1
# Description: 1. FLIPR Assay of Inhibitory Activity on Human TRPA1
# A calcium ion flux fluorescence method (FLIPR assay) was adopted to measure the inhibitory activity of compounds on human TRPA1 channel. The literature reports of Lee and Chen et al. may be referred to for the method [Lee et al. Br J Pharmacol 2008, 153 (8): 1739-1749] [Chen et al. Pain 2011, 152(5):1165-72].
# A HEK293 recombinant cell strain stably expressing human TRPA1 (Creative Biogene, NY) was cultured in DMEM (Thermo Fisher Scientific, Shanghai) medium (containing 10% calf serum, 5 μg/ml Blasticidin and 400 ug/ml G418). The incubator was under a condition of 37° C. and air humidity with 5% CO2.
# TRPA1 cells were seeded in a 96-well analysis plate at a density of 75,000 cells per well (100 ul/well), and cultured overnight in an incubator at 37° C. and 5% CO2. On the second day, incubation was continued overnight under the same condition to induce the expression of TRPA1 after the culture medium in each well was poured out and a fresh supplement with the same culture medium containing 0.1 μg/ml Tetracycline was added. The further next day, the culture medium was pour out, a DMEM culture solution (also containing 2.5 mM Probenicid) containing 5 μM Fluo-4 AM (Molecular Probes) was added to each well, and incubation was conducted at 37° C. for 1 hour.
# The compound was dissolved in 100% DMSO to prepare a 30 mM stock solution which was stored at −20° C. On the day of use, the compound stock solution was thawed at room temperature. Each compound was subjected to 1:5 serial dilution using DMSO medium at a starting concentration of 30 μM with 9 concentration points on a 96-well plate. Each compound was diluted in duplicate for testing. Ruthenium Red was used as the positive control compound and the same dilution was carried out at a starting concentration of 3 μM.
# The cell analysis plate was placed in an FLIPR instrument […], and the compound in the compound plate was added to the corresponding hole on the cell analysis plate (First addition) via an automatic program, and the calcium ion fluorescence signal was recorded to determine whether the compound had agonistic activity. After 10 minutes, CaCl2 (Second addition) was added a final concentration of 3 mM to each well to stimulate intracellular calcium flux signals. Ca^++-dependent fluorescence signal was monitored continuously at 538 nm wavelength to analyze the inhibitory activity of the compounds.
# The data was collected and analyzed using a FLIPR program. The fluorescence peak value was used to evaluate the inhibitory (or agonistic) activity of the compounds at each concentration. EXCEL and PRISM programs were used to calculate the IC50 value of the compounds.
# Sequence of human TRPA1 (O75762 whole entry): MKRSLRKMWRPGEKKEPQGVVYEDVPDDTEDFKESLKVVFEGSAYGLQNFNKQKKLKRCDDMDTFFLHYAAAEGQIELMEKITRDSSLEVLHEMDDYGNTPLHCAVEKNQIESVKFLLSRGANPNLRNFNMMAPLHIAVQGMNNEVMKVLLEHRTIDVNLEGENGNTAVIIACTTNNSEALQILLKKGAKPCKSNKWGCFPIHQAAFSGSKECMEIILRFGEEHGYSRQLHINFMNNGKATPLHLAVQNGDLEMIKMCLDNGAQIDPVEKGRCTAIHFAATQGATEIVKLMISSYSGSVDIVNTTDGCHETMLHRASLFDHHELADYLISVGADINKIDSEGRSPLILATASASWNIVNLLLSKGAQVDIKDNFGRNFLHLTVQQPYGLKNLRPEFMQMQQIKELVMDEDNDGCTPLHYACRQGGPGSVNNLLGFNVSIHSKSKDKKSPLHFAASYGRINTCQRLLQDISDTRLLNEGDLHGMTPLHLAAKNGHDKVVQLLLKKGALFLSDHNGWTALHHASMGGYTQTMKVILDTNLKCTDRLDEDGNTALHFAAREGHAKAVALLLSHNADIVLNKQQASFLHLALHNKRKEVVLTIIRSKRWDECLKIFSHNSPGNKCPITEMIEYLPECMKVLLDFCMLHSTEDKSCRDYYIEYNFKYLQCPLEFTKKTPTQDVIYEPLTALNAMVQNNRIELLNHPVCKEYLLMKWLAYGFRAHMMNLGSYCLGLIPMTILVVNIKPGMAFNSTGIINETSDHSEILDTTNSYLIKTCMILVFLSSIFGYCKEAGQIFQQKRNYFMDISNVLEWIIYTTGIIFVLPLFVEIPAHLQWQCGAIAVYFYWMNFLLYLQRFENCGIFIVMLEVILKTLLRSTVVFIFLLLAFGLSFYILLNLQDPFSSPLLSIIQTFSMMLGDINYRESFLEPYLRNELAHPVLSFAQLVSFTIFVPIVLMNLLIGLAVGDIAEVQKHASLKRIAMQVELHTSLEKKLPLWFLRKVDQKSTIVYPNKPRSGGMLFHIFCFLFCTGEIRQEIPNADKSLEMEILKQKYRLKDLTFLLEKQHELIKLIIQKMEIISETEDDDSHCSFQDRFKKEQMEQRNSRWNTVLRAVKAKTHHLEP
row,IC50 [nM],Compound
1,105,"N#Cc1ccc(NC2(C(=O)N3CCN(c4cccc(C(F)(F)F)c4)CC3)CCCC2)cc1 [Compound 2, 4-((1-(4-(3-(trifluoromethyl)phenyl)piperazine-1-carbonyl)cyclopentyl)amino)benzo-nitrile]"
2,1580,"N#Cc1ccc(NC2(C(=O)N3CCN(c4ccccc4C(F)(F)F)CC3)CCCC2)cc1 [Compound 3, 4-((1-(4-(2-(trifluoromethyl)phenyl)piperazine-1-carbonyl)cyclopentyl)amino)benzo-nitrile]"
3,152,"N#Cc1ccc(NC2(C(=O)N3CCN(c4ccccc4OC(F)(F)F)CC3)CCCC2)cc1 [Compound 4, 4-((1-(4-(2-(trifluoromethoxy)phenyl)piperazine-1-carbonyl)cyclopentyl)amino)benzo-nitrile]"
4,129,N#Cc1ccc(NC2(C(=O)N3CCN(c4ccc(OC(F)(F)F)cc4)CC3)CCCC2)cc1 [Compound 5]
5,35,"COc1cc(Cl)ccc1N1CCN(C(=O)C2(Nc3ccc(C#N)cc3)CCCC2)CC1 [Compound 6, 4-((1-(4-(4-chloro-2-methoxyphenyl)piperazine-1-carbonyl)cyclopentyl)amino)benzo-nitrile]"
6,64,Cc1cccc(N2CCN(C(=O)C3(Nc4ccc(C#N)cc4)CCCC3)CC2)c1 [Compound 7]
7,568,CCC(CC)(Nc1ccc(C#N)cc1)C(=O)N1CCN(c2cccc(C(F)(F)F)c2)CC1 [Compound 8]
8,32,"N#Cc1ccc(NC2(C(=O)N3CCN(c4ccc(C(F)(F)F)cn4)CC3)CCCC2)cc1 [Compound 10, 4-((1-(4-(5-(trifluoromethyl)pyridin-2-yl)piperazine-1-carbonyl)cyclopentyl)amino)benzonitrile]"
9,6230,"N#Cc1ccc(NC2(C(=O)N3CCN(c4cccc(C(F)(F)F)n4)CC3)CC2)cc1 [Compound 12, 4-((1-(4-(6-(trifluoromethyl)pyridin-2-yl)piperazine-1-carbonyl)cyclopropyl)amino)ben zonitrile]"
10,378,"N#Cc1ccc(NC2(C(=O)N3CCN(c4cccc(C(F)(F)F)n4)CC3)CCC2)cc1 [Compound 13, 4-((1-(4-(6-(trifluoromethyl)pyridin-2-yl)piperazine-1-carbonyl)cyclobutyl)amino)benzo nitrile]"
11,87,CC(C)(C)C(Nc1ccc(C#N)cc1)C(=O)N1CCN(c2cccc(C(F)(F)F)n2)CC1 (centres unmarked) [Compound 14]
12,23,"Cc1cccc(N2CCN(C(=O)C3(Nc4ccc(C#N)cc4)CCCC3)CC2)n1 [Compound 15, 4-((1-(4-(6-methylpyridin-2-yl)piperazine-1-carbonyl)cyclopentyl)amino)benzonitrile]"
13,8920,"CN(C)C(=O)c1ccc(N2CCN(C(=O)C3(Nc4ccc(C#N)cc4)CCCC3)CC2)nc1 [Compound 16, 6-(4-(1-((4-cyano-phenyl)amino)cyclopentane-1-carbonyl)piperazine-1-yl)N, N-dimethylnicotinamide]"
14,18,"N#Cc1ccc(NC2(C(=O)N3CCN(c4ncc(C(F)(F)F)cn4)CC3)CCCC2)cc1 [Compound 17, 4-((1-(4-(5-(trifluoromethyl)pyrimidin-2-yl)piperazine-1-carbonyl)cyclopentyl)amino)ben zonitrile]"
15,38,"N#Cc1ccc(NC2(C(=O)N3CCN(c4nccc(C(F)(F)F)n4)CC3)CCCC2)cc1 [Compound 18, 4-((1-(4-(4-(trifluoromethyl)pyrimidin-2-yl)piperazine-1-carbonyl)cyclopentyl)amino) benzonitrile]"
16,87,"N#Cc1ccc(NC2(C(=O)N3CCN(c4ccc(C(F)(F)F)nn4)CC3)CCCC2)cc1 [Compound 19, 4-((1-(4-(6-(trifluoromethyl)pyridazin-3-yl)piperazine-1-carbonyl)cyclopentyl)amino) benzonitrile]"

row,IC50 [nM],Compound
1,576,"N#Cc1ccc(NC2(C(=O)N3CCN(c4ccc(C(F)(F)F)s4)CC3)CCCC2)cc1 [Compound 24, 4-((1-(4-(5-(trifluoromethyl)thien-2-yl)piperazine-1-carbonyl)cyclopentyl)amino)benzonitrile]"
2,876,"N#Cc1ccc(NC2(C(=O)N3CCN(c4ncc(C(F)(F)F)s4)CC3)CCCC2)cc1 [Compound 25, 4-((1-(4-(5-(trifluoromethyl)thiazol-2-yl)piperazine-1-carbonyl)cyclopentyl)amino)benzonitrile]"
3,2830,"Cn1ccc(N2CCN(C(=O)C3(Nc4ccc(C#N)cc4)CCCC3)CC2)n1 [Compound 26, 4-((1-(4-(1-methyl-1H-pyrazol-3-yl)piperazine-1-carbonyl)cyclopentyl)amino)benzonitrile]"
4,567,"C#Cc1ccc(NC2(C(=O)N3CCN(c4cccc(C(F)(F)F)n4)CC3)CCCC2)cc1 [Compound 27, 4-((1-(4-(6-(trifluoromethyl)pyridin-2-yl)piperazine-1-carbonyl)cyclopentyl)amino)phenylacetylene]"
5,26,"N#Cc1ccc(NC2(C(=O)N3CC4CCC3CN4c3cccc(C(F)(F)F)n3)CCCC2)cc1 (centres unmarked) [Compound 29, 4-((1-(5-(6-(trifluoromethyl)pyridin-2-yl)-2,5-diazabicyclo[2.2.2]octane-2-carbonyl)cyclopentyl)amino)benzonitrile]"
6,54,"N#Cc1ccc(NC2(C(=O)N3CCN(CC4CCCC4)CC3)CCCC2)cc1 [Compound 30, 4-((1-(4-(cyclopentanemethyl)piperazine-1-carbonyl)cyclopentyl)amino)benzonitrile]"
7,543,"CC(C)CC1CCN(C(=O)C2(Nc3ccc(C#N)cc3)CCCC2)CC1 [Compound 32, 4-((1-(4-(isobutyl)piperidine-1-carbonyl)cyclopentyl)amino)benzonitrile]"
8,92,"N#Cc1ccc(NC2(C(=O)N3CCC(C4CCCC4)CC3)CCCC2)cc1 [Compound 33, 4-((1-(4-(cyclopentyl)piperidine-1-carbonyl)cyclopentyl)amino)benzonitrile]"
9,287,"N#Cc1ccc(NC2(C(=O)N3CCC4(CCCC4)CC3)CCCC2)cc1 [Compound 34, 4-((1-(8-aza-spiro[4.5]decane-8-carbonyl)cyclopentyl)amino)benzonitrile]"
10,85,"N#Cc1ccc(NC2(C(=O)N3CCC(C4CCCCC4)CC3)CCCC2)cc1 [Compound 35, 4-((1-(4-(cyclohexyl)piperidine-1-carbonyl)cyclopentyl)amino)benzonitrile]"
11,1250,"C#Cc1ccc(NC2(C(=O)N3CCC(C(C)(C)C)CC3)CCCC2)cc1 [Compound 36, 4-((1-(4-(tert-butyl)piperidine-1-carbonyl)cyclopentyl)amino)phenylacetylene]"
12,5210,"CC(C)(C)C1CCN(C(=O)C2(Nc3ccc(C#N)cc3)CCC2)CC1 [Compound 37, 4-((1-(4-(tert-butyl)piperidine-1-carbonyl)cyclobutyl)amino) benzonitrile]"
13,10200,"CC(C)(C)C1CCN(C(=O)C2(Nc3ccc(C#N)cc3)CC2)CC1 [Compound 38, 4-((1-(4-(tert-butyl)piperidine-1-carbonyl)cyclopropyl)amino)benzonitrile]"
14,1080,"CC(C)(C)C1CCN(C(=O)C2(Nc3nc(C#N)cs3)CCCC2)CC1 [Compound 39, 2-((1-(4-(tert-butyl)piperidine-1-carbonyl)cyclopentyl)amino) thiazole-4-carbonitrile]"
15,950,"CC(C)(C)C1CCN(C(=O)C2(Nc3ncc(C#N)s3)CCCC2)CC1 [Compound 40, 2-((1-(4-(tert-butyl)piperidine-1-carbonyl)cyclopentyl)amino)thiazole-5-carbonitrile]"
16,3070,"CC(C)(C)C1CCN(C(=O)C2(Nc3nc(C#N)co3)CCCC2)CC1 [Compound 41, 2-((1-(4-(tert-butyl)piperidine-1-carbonyl)cyclopentyl)amino) oxazole-4-carbonitrile]"

row,Compound,IC50 [nM]
1,4-((3-(4-(3-trifluoromethyl) phenyl)piperazine-1-carbonyl) propane-2-yl)amino)benzo- nitrile [Compound 9],5670
2,"N#Cc1ccc(NC2(C(=O)N3CCN(c4ccc(C(F)(F)F)nn4)CC3)CCCC2)cc1Cl [Compound 22, 2-chloro-4-((1-(4-(6-(trifluoromethyl)pyridazin-3-yl)piperazine-1-carbonyl)cyclopentyl)amino)benzonitrile]",765
3,"N#Cc1ccc(NC2(C(=O)N3C[C@H]4CC[C@@H](C3)N4c3cccc(C(F)(F)F)n3)CCCC2)cc1 [Compound 28, 4-((1-(8-(6-(trifluoromethyl)pyridin-2-yl)-3,8-diazabicyclo[3.2.1]octane-3-carbonyl)cyclopentyl)amino)benzonitrile]",15
